Results as given in the SangsterLogP compilation.

| Compound | logP |
| --- | --- |
| O=C(O)CSC1c2cccc(O)c2C(=O)c2c(O)cccc21 | 2.35 |
| COc1cccc(SC2c3cccc(O)c3C(=O)c3c(O)cccc32)c1 | 4.5 |
| O=C1c2c(O)cccc2C(Sc2ccccc2)c2cccc(O)c21 | 4.54 |
| O=C1c2c(O)cccc2C(Sc2ccc(O)cc2)c2cccc(O)c21 | 3.69 |
| COc1ccc(CSC2c3cccc(O)c3C(=O)c3c(O)cccc32)cc1 | 4.83 |
| O=C1c2c(O)cccc2C(SCc2ccccc2)c2cccc(O)c21 | 4.87 |
| COc1ccccc1SC1c2cccc(O)c2C(=O)c2c(O)cccc21 | 4.42 |
| O=C(O)CCSC1c2cccc(O)c2C(=O)c2c(O)cccc21 | 3 |
| Nc1ccccc1SC1c2cccc(O)c2C(=O)c2c(O)cccc21 | 4.05 |
| O=C1c2c(O)cccc2C(SCC(O)CO)c2cccc(O)c21 (stereo not given) | 2.73 |
| O=C1c2c(O)cccc2C(SCCc2ccccc2)c2cccc(O)c21 | 4.97 |
| O=C1c2c(O)cccc2C(Sc2ccccc2O)c2cccc(O)c21 | 3.92 |
| CCSC1c2cccc(O)c2C(=O)c2c(O)cccc21 | 2.97 |
| COc1ccc(SC2c3cccc(O)c3C(=O)c3c(O)cccc32)cc1 | 4.51 |
| O=C1c2c(O)cccc2C(SCCCS)c2cccc(O)c21 | 4.33 |
| CCCSC1c2cccc(O)c2C(=O)c2c(O)cccc21 | 4.57 |
| CCOC(=O)CCSC1c2cccc(O)c2C(=O)c2c(O)cccc21 | 4.59 |
| CCCCOC(=O)CCSC1c2cccc(O)c2C(=O)c2c(O)cccc21 | 4.55 |
| COC(=O)CSC1c2cccc(O)c2C(=O)c2c(O)cccc21 | 3.53 |
| O=C1c2c(O)cccc2C(SCCCc2ccccc2)c2cccc(O)c21 | 4.78 |
| CCCCOC(=O)CSC1c2cccc(O)c2C(=O)c2c(O)cccc21 | 4.41 |
| Nc1ccc(SC2c3cccc(O)c3C(=O)c3c(O)cccc32)cc1 | 3.65 |
| CCOC(=O)CSC1c2cccc(O)c2C(=O)c2c(O)cccc21 | 4.45 |
| O=C1c2c(O)cccc2C(SCCO)c2cccc(O)c21 | 3.16 |
| CC(SC1c2cccc(O)c2C(=O)c2c(O)cccc21)C(=O)O (stereo not given) | 2.77 |
